Patent publication US4202802A, “Peptides related to somatostatin” (Eli Lilly and Company, priority 1978, dated 1980)
Several values for one entry are separate records, joined by “and”; a condition that tells them apart may be missing. Equal values may be shown once. Bridge positions count the residues as written; N and C are the ends. Square brackets hold non-standard residues; d marks the D form. Peptide text beside a SMILES is read from it.

Columns and labels:
serum insulin = assay: Insulin Inhibition In Dogs (I.V. infusion of test compound with L-alanine infusion, serum insulin by radioimmunoassay); assay type: in vivo, dog; settings: for inhibition of insulin concentration: fasted dog, I.V. infusion, doses: Example 4 0.147, Example 7 0.182, Example 10 0.247 μg/kg/min, Example 14 0.092, 0.126, 0.128, 0.198 μg/kg/min and 0.305 mg/kg/min
Description: (§1) A normal dog is fasted overnight. An intravenous (I.V.) infusion of the test compound (dissolved in saline) is begun. Thirty minutes thereafter an additional infusion of L-alanine (dissolved in saline) is begun and is continued for a total of 15 minutes so that a total dose of about 1 mmole of L-alanine per kg. body weight is given. Infusion of the test compound is continued for an additional 15 minute period.
(§2) Blood samples are taken periodically before (at -20, -10 and -1 minutes) and after (5, 10, 15, 30, 35, 40, 45, 50, 60, 90, 120 and 150 minutes) the start of the infusion of the test compound. The serum insulin and serum glucagon concentrations in the blood are determined by radioimmunoassay. A plot is made of the glucagon and insulin concentrations versus time. The plot obtained from the test compound is compared to plots obtained from somatostatin and saline (controls) in similar experiments.
(§3) Infusion of L-alanine (in the absence of somatostatin or active test compound) causes an abrupt increase in serum insulin and glucagon concentrations. The concentrations return to basal levels after the L-alanine infusion is terminated. Infusion of somalostatin (alone) causes a decrease in basal serum concentrations of insulin and glucagon.

[1] = tested on: growth hormone (GH) secretion; assay: Growth Hormone Inhibition In Rats (pentobarbital-stimulated GH secretion, serum GH by radioimmunoassay); assay type: in vivo; settings: male rats, peptide S.C.; for Serum Growth Hormone Conc. Mean ± SEM: pentobarbital 4 mg/rat I.P.
Description: This test is a modification of the method of P. Brazeau et al. Endocrinology, 94, 184 (1974). Male rats (weighing 100-110 g.) are divided into three groups of eight rats each. Each rat is administered sodium pentobarbital at a dose of 4 mg/rat (I.P.) to stimulate growth hormone (GH) secretion. Simultaneously, one group of rats receives the test compound (S.C.); the second group receives somatostatin (S.C.); and the third group (control) receives saline (S.C.). Twenty-minutes later, the animals are decapitated and blood samples are collected. The serum concentration of growth hormone (GH) is determined by radioimmunoassay. The mean GH concentration (±standard error of the mean) is calculated for each group. The percent inhibition of GH release (as compared to saline controls) is then calculated for the test compound and for somatostatin. When tested as above-described, the peptides of Example 4, 7, 10, and 14, representative of the peptides of Formula III, gave the results set forth below in Table I: […]

serum glucagon = assay: Glucagon Inhibition In Dogs (I.V. infusion of test compound with L-alanine infusion, serum glucagon by radioimmunoassay); assay type: in vivo, dog; settings: for inhibition of glucagon concentration: fasted dog, I.V. infusion, doses: Example 4 0.147, Example 7 0.182, Example 10 0.247 μg/kg/min, Example 14 0.092, 0.126, 0.128, 0.198 μg/kg/min and 0.305 mg/kg/min
Description: as §1, §2, §3

[2] = Dose (mg/kg) 2, 20 min after dosing
[3] = Dose (mg/kg) 50, 20 min after dosing
[4] = dog, in the presence of L-alanine
[5] = dog, infusion alone (no L-alanine)

Row | Structure (SMILES) | inhibition of insulin concentration (serum insulin) | Serum Growth Hormone Conc. Mean ± SEM [1, 2] | Serum Growth Hormone Conc. Mean ± SEM [1, 3] | % Inhibition of GH release (as compared to saline controls) ([1]; Dose (mg/kg) 2) | % Inhibition of GH release (as compared to saline controls) ([1]; Dose (mg/kg) 50) | inhibition of glucagon concentration (serum glucagon) | effect on the increase in insulin concentration induced by L-alanine (serum insulin; [4]) | effect on basal serum concentration of insulin (serum insulin; [5]) | effect on the increase in glucagon concentration induced by L-alanine (serum glucagon; [4]) | effect on basal serum concentration of glucagon (serum glucagon; [5])
1 | C[C@H](N)C(=O)N[C@H](C)C(=O)N[C@H]1CSSC[C@@H](C(=O)O)NC(=O)[C@H](CO)NC(=O)[C@H]([C@@H](C)O)NC(=O)[C@@H](Cc2ccccc2)NC(=O)[C@H]([C@@H](C)O)NC(=O)[C@H](CCCCN)NC(=O)[C@@H](Cc2c[nH]c3ccccc23)NC(=O)[C@H](Cc2ccccc2)NC(=O)[C@H](Cc2ccccc2)NC(=O)[C@H](C)NC(=O)[C@H](CCCCN)NC1=O [Example 14, L-Alanyl-D-alanyl-L-cysteinyl-L-lysyl-L-alanyl-L-phenylalanyl-L-phenylalanyl-D-tryptophyl-L-lysyl-L-threonyl-D-phenylalanyl-L-threonyl-L-seryl-L-cysteine cyclic (3->14) disulfide] (H-A[dA]CKAFF[dW]KT[dF]TSC-OH; disulfide 3-14) | no significant inhibition | 132 ± 69.4 ng/mL | 77.8 ± 19.6 ng/mL | 20% | 53% | no significant inhibition |  |  |  | 
2 | CC(C)C[C@@H]1NC(=O)[C@H](C)NC(=O)[C@H](CCCCN)NC(=O)[C@@H](NC(=O)CNC(=O)[C@H](N)C(C)C)CSSC[C@@H](C(=O)O)NC(=O)[C@H](CO)NC(=O)[C@H]([C@@H](C)O)NC(=O)[C@@H](Cc2ccccc2)NC(=O)[C@H]([C@@H](C)O)NC(=O)[C@H](CCCCN)NC(=O)[C@@H](Cc2c[nH]c3ccccc23)NC(=O)[C@H](Cc2ccccc2)NC1=O [Example 10, D-Valyl-L-glycyl-L-cysteinyl-L-lysyl-L-alanyl-L-leucyl-L-phenylalanyl-D-tryptophyl-L-lysyl-L-threonyl-D-phenylalanyl-L-threonyl-L-seryl-L-cysteine cyclic (3->14) disulfide] (H-[dV]GCKALF[dW]KT[dF]TSC-OH; disulfide 3-14) | no significant inhibition | 82.8 ± 19.6 ng/mL | 93.5 ± 22.6 ng/mL | 37.3% | 29.3% | no significant inhibition |  |  |  | 
3 | C[C@H](N)C(=O)NCC(=O)N[C@H]1CSSC[C@@H](C(=O)O)NC(=O)[C@H](CO)NC(=O)[C@H]([C@@H](C)O)NC(=O)[C@H](Cc2ccccc2)NC(=O)[C@H]([C@@H](C)O)NC(=O)[C@H](CCCCN)NC(=O)[C@H](Cc2c[nH]c3ccccc23)NC(=O)[C@H](Cc2ccccc2)NC(=O)[C@H](Cc2ccccc2)NC(=O)[C@H](CC(N)=O)NC(=O)[C@H](CCCCN)NC1=O [Somatostatin] |  |  |  | 0% | 86.6% and 84.9% and 89.7% and 93% |  | inhibits the increase | decrease | inhibits the increase | decrease
4 | CC(C)[C@@H](N)C(=O)NCC(=O)N[C@H]1CSSC[C@@H](C(=O)O)NC(=O)[C@H](CO)NC(=O)[C@H]([C@@H](C)O)NC(=O)[C@@H](Cc2ccccc2)NC(=O)[C@H]([C@@H](C)O)NC(=O)[C@H](CCCCN)NC(=O)[C@@H](Cc2c[nH]c3ccccc23)NC(=O)[C@H](Cc2ccccc2)NC(=O)[C@H](Cc2ccccc2)NC(=O)[C@H](C)NC(=O)[C@H](CCCCN)NC1=O [Example 7, D-Valyl-L-glycyl-L-cysteinyl-L-lysyl-L-alanyl-L-phenylalanyl-L-phenylalanyl-D-tryptophyl-L-lysyl-L-threonyl-D-phenyl-alanyl-L-threonyl-L-seryl-L-cysteine cyclic (3->14) disulfide] (H-[dV]GCKAFF[dW]KT[dF]TSC-OH; disulfide 3-14) | no significant inhibition | 94.7 ± 22 ng/mL | 38.7 ng/mL | 45.9% | 77.5% | no significant inhibition |  |  |  | 
5 | CC(C)[C@@H](N)C(=O)NCC(=O)N[C@H]1CSSC[C@@H](C(=O)O)NC(=O)[C@H](CO)NC(=O)[C@H]([C@@H](C)O)NC(=O)[C@@H](Cc2ccccc2)NC(=O)[C@H]([C@@H](C)O)NC(=O)[C@H](CCCCN)NC(=O)[C@@H](Cc2c[nH]c3ccccc23)NC(=O)[C@H](Cc2ccccc2)NC(=O)[C@@H](Cc2ccccc2)NC(=O)[C@H](C)NC(=O)[C@H](CCCCN)NC1=O [Example 4, D-Valyl-L-glycyl-L-cysteinyl-L-lysyl-L-alanyl-D-phenylalanyl-L-phenylalanyl-D-tryptophyl-L-lysyl-L-threonyl-D-phenyl-alanyl-L-threonyl-L-seryl-L-cysteine cyclic (3->14) disulfide] (H-[dV]GCKA[dF]F[dW]KT[dF]TSC-OH; disulfide 3-14) | no significant inhibition | 72.1 ± 27.3 ng/mL | 31.9 ± 16.6 ng/mL | 27.9% | 68.1% | no significant inhibition |  |  |  | 
